{"source": "patent US20250032641A1", "about": "“IMMUNE- STIMULATING COMPOUNDS LINKED TO GLYCOGEN-BASED POLYSACCHARIDE NANOPARTICLES FOR SENSITIZING CANCER CELLS TO A CHEMOTHERAPEUTIC DRUG” (GLYSANTIS BIOTECH INC., priority 2020, published 2025)", "key": {"[1]": {"test_system": "IFN-beta, ISG15, CXCL10 transcripts in SKOV3, SKBR3, MCF7, HeLa, B16F10 cells", "test": "qRT-PCR transcript levels of interferon-stimulated genes / innate immune response in cancer cell lines", "assay_type": "cell-based, human", "conditions": "cancer cells (Breast, Ovarian, Cervical, Melanoma); same doses bound and unbound", "description": "SKOV-3 cells were treated with media alone (CTRL), 125 ng/ml of pI:pC, or 125 ng/mL of poly IC complexed with 250 ng/ml of PhG (poly IC:PhG) for 6 hours. Transcript levels were measured using qRT-PCR.\nSKRBR-3 cells were treated with media alone (CTRL), 2.5 μg/mL of pI:pC, or 2.5 μg/mL of poly IC complexed with 5 μg/mL of PhG (poly IC:PhG) for 6 hours. Transcript levels were measured using qRT-PCR.\nMCF-7 cells were treated with media alone (CTRL), 5 μg/mL of pI:pC, or 5 μg/mL of poly IC complexed with 10 μg/mL of PhG (poly IC:PhG) for 6 hours. Transcript levels were measured using qRT-PCR.\nHeLa cells were treated with media alone (CTRL), 5 μg/mL of pI:pC, or 5 μg/mL of poly IC complexed with 10 μg/mL of PhG (poly IC:PhG) for 6 hours. Transcript levels were measured using qRT-PCR.\nHela cells were treated with media alone (CTRL), 5 μg/mL of pI:pC, or 5 μg/mL of poly IC complexed with 10 μg/mL of PhG (poly IC:PhG) for 6 hours. Transcript levels were measured using qRT-PCR. […]\nCells were plated in 6-well plates at 1×10E6 cells per well in DMEM and allowed to attach overnight. […] All transcripts were normalized to actin and quantified relative to mock treated."}, "[2]": {"test_system": "pI:pC resistant SKOV-3 cells", "test": "Cell viability by alamar blue, carboplatin alone or combined with free or nanoparticle bound pI:pC", "assay_type": "cell-based", "conditions": "carboplatin combination, 72 hours", "description": "Twenty-four (24) hours post seeding, cells were left untreated, or treated with EC50 carboplatin, 125 ng/ml pI:pC, 125 ng/ml pI:pC ionically bound to glycogen nanoparticles (1:1 w/w), or the combination of EC50 carboplatin and 125 ng/ml pI:pC, or EC50 carboplatin and 125 ng/ml nanoparticle bound pI:pC, and cell viability was measured after 72 hours incubation.\nCell viability was measured by alamar blue of pI:pC resistant SKOV-3 cells treated with carboplatin alone, or in combination with “free” pI:pC or glycogen nanoparticle bound pI:pC. SKOV-3 cells were plated in a 12-well dish at 1.5×10^6 per well. Twenty-four (24) hours post seeding, cells were left untreated, or treated with EC50 carboplatin, 125 ng/ml pI:pC, 125 ng/ml pI:pC ionically bound to glycogen nanoparticles (1:1 w/w), or the combination of EC50 carboplatin and 125 ng/ml pI:pC, or EC50carboplatin and 125 ng/ml nanoparticle bound pI:pC. Cells were incubated at 37° C., 5% CO2 for 72 hours, and cell viability was measured by alamar blue assay according to the manufacturer's protocol (Invitrogen)."}}}
{"substance": "polyinosinic:polycytidylic acid [unbound pI:pC]", "values": [{"measurement": "innate immune response", "setting": "[1]", "result": "ineffective"}, {"measurement": "sensitization of pI:pC resistant cells to a chemotherapeutic drug", "setting": "[2]", "result": "ineffective"}]}
